# According to ChEMBL document CHEMBL1201862, “PubChem BioAssay data set” (2004):
#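 These data come from cells grown in 96-well plates and exposed to compound for 48 hours at five concentrations. The concentration for 50% growth inhibition is given as GI50.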 Activity calls are given as the source filed them. Rule as the data show it: active = GI50 up to about 1.1 µM and inactive = higher. Residues, ends and D or L forms follow the SMILES beside them. *: point of attachment. Boc = CC(C)(C)OC(=O)*; OBn = c1ccc(CO*)cc1
# How the values were obtained:
# Assay in all cases: growth of human tumour cells (NCI), 48 h
# [1] = test system: KM12
# [2] = test system: PC-3
# [3] = test system: SK-OV-3
# [4] = test system: SK-MEL-5
# [5] = test system: OVCAR-4
# [6] = test system: SNB-19
# [7] = test system: RPMI-8226
# [8] = test system: CAKI-1
# [9] = test system: HL-60
# [10] = test system: SK-MEL-2
# [11] = test system: ACHN
# [12] = test system: U-251
# [13] = test system: COLO 205
# [14] = test system: SK-MEL-28
# [15] = test system: OVCAR-5
# [16] = test system: HCT-15
# [17] = test system: OVCAR-8
# [18] = test system: UACC-257
# [19] = test system: UACC-62
# [20] = test system: HOP-92
SMILES,GI50 [1],GI50 [2],GI50 [3],GI50 [4],GI50 [5],GI50 [6],GI50 [7],GI50 [8],GI50 [9],GI50 [10],GI50 [11],GI50 [12],GI50 [13],GI50 [14],GI50 [15],GI50 [16],GI50 [17],GI50 [18],GI50 [19],GI50 [20]
CCN1CC2=C(N=c3s/c(=C\c4ccc(Cl)cc4)c(=O)n3C2c2ccc(Cl)cc2)/C(=C/c2ccc(Cl)cc2)C1 (stereo not drawn),> 100 µM (inactive),> 100 µM (inactive),16.8 µM (inactive),> 100 µM (inactive),> 100 µM (inactive),44.4 µM (inactive),84.9 µM (inactive),16.4 µM (inactive),> 100 µM (inactive),26.6 µM (inactive),58.7 µM (inactive),20.8 µM (inactive),> 100 µM (inactive),> 100 µM (inactive),> 100 µM (inactive),> 100 µM,> 100 µM (inactive),> 100 µM (inactive),32.2 µM (inactive),
C/C(Nc1ccc(F)cc1)=C1/CCOC1=O,1.38 µM (inactive),46.5 µM (inactive),,12.9 µM (inactive),> 100 µM (inactive),> 100 µM (inactive),> 100 µM (inactive),,12.4 µM (inactive),,1.8 µM (inactive),> 100 µM (inactive),4.7 µM (inactive),> 100 µM (inactive),,> 100 µM,17.3 µM (inactive),> 100 µM (inactive),0.277 µM (active),> 100 µM (inactive)
COc1cc2c(cc1C)NC(=O)/C2=C\c1ccncc1,3.48 µM (inactive),6.55 µM (inactive),3.96 µM (inactive),2.73 µM (inactive),> 100 µM (inactive),5.2 µM (inactive),,3.57 µM (inactive),3.73 µM (inactive),2.97 µM (inactive),6.05 µM (inactive),4.39 µM (inactive),7.19 µM (inactive),11.1 µM (inactive),10.9 µM (inactive),4.28 µM,2.52 µM (inactive),5.19 µM (inactive),5.53 µM (inactive),26.1 µM (inactive)
CC(C)(C)OC(=O)NCCNCCNc1ccccc1,> 100 µM (inactive),> 100 µM (inactive),> 100 µM (inactive),62.1 µM (inactive),> 100 µM (inactive),> 100 µM (inactive),> 100 µM (inactive),> 100 µM (inactive),,> 100 µM (inactive),> 100 µM (inactive),> 100 µM (inactive),> 100 µM (inactive),> 100 µM (inactive),> 100 µM (inactive),> 100 µM,> 100 µM (inactive),> 100 µM (inactive),> 100 µM (inactive),> 100 µM (inactive)
CCCCCNc1nonc1N,> 100 µM (inactive),> 100 µM (inactive),> 100 µM (inactive),> 100 µM (inactive),> 88.3 µM (inactive),> 100 µM (inactive),> 100 µM (inactive),> 100 µM (inactive),,> 100 µM (inactive),> 100 µM (inactive),> 100 µM (inactive),> 100 µM (inactive),> 100 µM (inactive),> 100 µM (inactive),> 100 µM,> 100 µM (inactive),> 100 µM (inactive),> 100 µM (inactive),> 100 µM (inactive)
N/N=C1\CCCc2c1no[n+]2[O-],> 100 µM (inactive),> 100 µM (inactive),> 100 µM (inactive),> 100 µM (inactive),> 100 µM (inactive),> 100 µM (inactive),> 100 µM (inactive),> 100 µM (inactive),> 100 µM (inactive),> 100 µM (inactive),> 100 µM (inactive),> 100 µM (inactive),> 100 µM (inactive),> 100 µM (inactive),> 100 µM (inactive),> 100 µM,> 100 µM (inactive),> 100 µM (inactive),> 100 µM (inactive),
CSCC[C@H](NC(=O)[C@H](CC(C)C)NC(=O)[C@@H](Cc1ccccc1)NC(=O)CNC(=O)[C@@H](NC(=O)[C@H](C)NC(=O)[C@H](Cc1c[nH]c2ccccc12)NC(=O)[C@H](CCC(N)=O)NC(=O)[C@H](N)CC(N)=O)C(C)C)C(N)=O,> 12.5 µM (inactive),> 12.5 µM (inactive),> 12.5 µM (inactive),> 12.5 µM (inactive),> 12.5 µM (inactive),> 12.5 µM (inactive),> 12.5 µM (inactive),> 12.5 µM (inactive),> 12.5 µM (inactive),,> 12.5 µM (inactive),> 12.5 µM (inactive),> 12.5 µM (inactive),> 12.5 µM (inactive),> 12.5 µM (inactive),> 12.5 µM,> 12.5 µM (inactive),> 12.5 µM (inactive),> 12.5 µM (inactive),> 12.5 µM (inactive)
CC(C)N(C(=O)C12C3(C(=O)C(C)(C)C)C4C5(C#N)C3C1(C(=O)C(C)(C)C)C5C42C(=O)C(C)(C)C)C(C)C (stereo not drawn),> 100 µM (inactive),> 100 µM (inactive),,> 100 µM (inactive),> 100 µM (inactive),> 100 µM (inactive),,> 100 µM (inactive),> 100 µM (inactive),> 100 µM (inactive),> 100 µM (inactive),> 100 µM (inactive),> 100 µM (inactive),> 100 µM (inactive),> 100 µM (inactive),> 100 µM,> 100 µM (inactive),> 100 µM (inactive),> 100 µM (inactive),66.2 µM (inactive)
Cc1ccccc1C(O)(c1nccn1C)c1nccn1C,> 100 µM (inactive),> 100 µM (inactive),> 100 µM (inactive),> 100 µM (inactive),> 100 µM (inactive),> 100 µM (inactive),,> 100 µM (inactive),> 100 µM (inactive),> 100 µM (inactive),> 100 µM (inactive),> 100 µM (inactive),> 100 µM (inactive),> 100 µM (inactive),> 100 µM (inactive),> 100 µM,> 100 µM (inactive),> 100 µM (inactive),> 100 µM (inactive),> 100 µM (inactive)
CC(=O)OCC1OC(n2c(C)c(/N=N/c3ccc(C)cc3)c(C)c(C#N)c2=S)C(OC(C)=O)C(OC(C)=O)C1OC(C)=O (stereo not drawn),> 100 µM (inactive),> 100 µM (inactive),> 100 µM (inactive),43.2 µM (inactive),41.4 µM (inactive),> 100 µM (inactive),> 100 µM (inactive),> 100 µM (inactive),> 100 µM (inactive),,> 100 µM (inactive),> 100 µM (inactive),> 100 µM (inactive),> 100 µM (inactive),> 100 µM (inactive),,,> 100 µM (inactive),50.2 µM (inactive),0.895 µM (active)
CC(NC(=O)CNC(=O)OC(C)(C)C)C(=O)NC(Cc1ccccc1)C(=O)OCc1ccccc1 (stereo not drawn) (Boc-Gly-Ala-Phe-OBn; configuration not given here),> 100 µM (inactive),> 100 µM (inactive),> 100 µM (inactive),> 100 µM (inactive),> 100 µM (inactive),> 100 µM (inactive),,> 100 µM (inactive),36.3 µM (inactive),> 100 µM (inactive),> 100 µM (inactive),> 100 µM (inactive),> 100 µM (inactive),36.5 µM (inactive),> 100 µM (inactive),> 100 µM,> 100 µM (inactive),> 100 µM (inactive),> 100 µM (inactive),> 100 µM (inactive)
